Test results as given in patent US10478446B2, “Compounds for use in polycystic kidney disease” (FONDAZIONE CENTRO SAN RAFFAELE OFFICE OF BIOTECHNOLOGY …, priority 2012, dated 2019).
Entries after “also recorded” stand apart in the source; their conditions may differ. Blank lines part the entries; values can stand above or below the molecule they belong to.

Assays:
[1] = test system: Pkd1^flox/−:Ksp-Cre mice; test: 2DG treatment of mice with cystic kidneys; format: in vivo, mouse
Procedure: For proliferation assays immunostaining was carried our using an anti-Ki67 antibody followed by analysis. For cells, fluorescence was measured on triplicates of 300 cells using the microscope Axioplot (Zeiss). For kidney sections, pictures at 20× were taken using the camera Axio MRc5 (Zeiss) with the microscope Axioplan 2 (Zeiss), positive cells were counted on 6 sections for each group for each experiment using the ImageJ software.
(§1) Generation of Pkd1^flox/−:Ksp-Cre mice was previously described. Briefly, we crossed Pkd1^flox/flox29 and Pkd1^+/−: Ksp-Cre mice in pure C57/B16 genetic background. For treatments 2DG (Sigma-Aldrich) or vehicle (NaCl) were injected subcutaneously daily from P6 until P8 at 500 mg/kg.
(§2) 2DG (Sigma-Aldrich) or vehicle (NaCl) were injected subcutaneously daily from P6 until P8 at 500 mg/kg.
(§3) After sacrifice, kidneys were removed, washed in phosphate-buffered saline (PBS), weighed and fixed in 4% Para formaldehyde (PFA). After incubation in a sucrose in PBS gradient scale from 10% to 30% samples were incubated in 10% glycerol (Sigma) in a mixture of OCT (BIO-OPTICA) and sucrose 30%, finally embedded in OCT. Criostat sections were air-dried 1 h, rehydrated in PBS, incubated in Harris Hematoxylin 1:10 (Sigma Aldrich) for 2 min, washed, incubated in Eosin G (BIO-OPTICA) for 7 min, washed dehydrated and mounted in DEPEX (Sigma).
For Immunohistochemistry 10 μm cryosections were washed in Tween-0.1% in PBS (like all washes), fixed in PAF4%, permeabilized in Triton 0.1% in PBS, incubated in hydrogen peroxide 0.3% for 30 min, blocked for 1 h at room temperature with 5% Normal Goat Serum (Sigma Aldrich) 3% bovine serum albumin (BSA, Sigma) in phosphate-buffered saline, incubated O/N at 4° C. with the Antibody (ab) in blocking buffer diluted at 1:500. Sections were then incubated with the Dako EnVision+System-HRP (Dako). Staining is completed by an incubation with 3,3′ diaminobenzidine tetrahydrochloride (DAB) DAB+Substrate Chromogen System (DakoCytomation) and counterstained with Harris Hematoxylin (Sigma Aldrich). diluted 1/10 for 3 min.
A grid of squares 13.625 μm large was applied to sections of kidneys stained with Hematoxylin-Eosin. Each cross is marked with a dot, number of dots inside the lumen are counted on three litters (218 000 μm^2 for each). The degree of dilatation is determined according to Lu et al., 1999 ^32:1 dot: normal tubules; 2 dots: dilatated tubules; 3-9 dots: Small cysts; ≥10 dots: Cysts.

[2] = test system: wt mice (ksp-cre: Pkd1^+/flox); test: 2DG treatment of wt mice; format: in vivo, mouse; conditions: 2DG 500 mg/kg daily P6 to P8
Procedure: as §1, §2, §3

[3] = test system: Pkd1^−/− MEFs; test: Western blot of signalling phosphoproteins (pAMPK, pERK, pS6RP, pLKB1); format: cell-based, mouse
Procedure: (§5) Antibodies anti-p-Akt 5473, anti-p-AMPK-Thr172; anti-AMPK, anti-p-S6RP Ser 235/236; anti-S6Rp; anti-p-ERK T202/Y204 and anti-ERK antibodies were from Cell Signaling Technology and used at 1:1000; anti-LC3 NB100 was from Novus Biologicals; anti-actin and anti-tubulin antibodies were from Sigma Aldrich and used at 1:5000. Anti-ki67 was from Novocastra and was used at 1:400. UO126 and rapamycin (Cell Signaling Technologies) were employed at final concentrations of 30 μM and 20 or 50 nM, respectively. AICAR and Metfomin (Sigma Aldrich) were used at the final concentration of 2 mM, oligomycin (Sigma Aldrich) was used at the final concentration of 30 μg/ml.
For western blot analysis, the cells were lysed [lysis buffer: 250 mM sucrose, 20 mM imidazole and 1 mM EDTA, pH 7.4, 0.5% Triton-X 100, supplemented with Protease Inhibitors Cocktail (Amersham) and phosphatase inhibitors (1 mM final of glycerophosphate, sodium orthovanadate and sodium fluoride)]. Total lysates were quantified and Laemmli buffer was added to reach a 1× final concentration. Proteins were resolved in a SDS-PAGE gel and transferred onto PVDF membranes. Next, 5% milk in TBS-T was used for blocking and for secondary antibody incubations, while 2% BSA in TBS-T was used for incubations with primary antibodies. HRP-conjugated secondary antibodies (from Roche) were visualized using the ECL System (Amersham), which were mixed with Super-Femto ECL System from Pierce when necessary.

[4] = test system: Pkd1^+/+ MEFs; test: Autophagosomes per cell by electron microscopy; format: cell-based, mouse; conditions: rapamycin 50 nM
Procedure: (§4) Cell culture monolayers were fixed for 15 min at 4° C. with PAF 4% and 2.5% glutaraldehyde in 125 mM cacodylate buffer. The monolayers were detached by rubber and centrifuged at high speed. The pellet was post-fixed (1 hour) with 2% OsO4 in 125 mM cacodylate buffer, was washed, dehydrated and embedded in Epon. Conventional thin sections were collect on uncoated grids, stained with uranil and lead citrate and examined in a Leo912 electron microscope.

[5] = test system: Pkd1^−/− MEFs; test: Autophagosomes per cell by electron microscopy / autophagy; format: cell-based, mouse; conditions: rapamycin 50 nM
Procedure: as §4

[6] = test system: Pkd1^+/+ MEFs; test: ATP content of MEFs after oligomycin; format: cell-based, mouse; conditions: oligomycin for 5 h, before treatment 102891+/−1042 RLU
Procedure: For ATP content evaluation, whole-cell extracts of control and treated MEFs cells were prepared by suspending pellets in lysis buffer as described in Distefano et al, 2009. […] Medium of control and treated MEFs was taken after 24 h at 100% of confluence. The concentration of lactate using EnzyChrom™ L-lactate Assay Kit (BioAssay Systems) and quantified on the final number of cells.

[7] = test system: PKD mouse model; conditions: Takiar et al. 2011; cited from earlier work
[8] = test system: Pkd1^+/+ MEFs; conditions: UO126
Procedure: as §5
For western blot analysis, the cells were lysed [lysis buffer: 250 mM sucrose, 20 mM imidazole and 1 mM EDTA, pH 7.4, 0.5% Triton-X 100, supplemented with Protease Inhibitors Cocktail (Amersham) and phosphatase inhibitors (1 mM final of glycerophosphate, sodium orthovanadate and sodium fluoride)]. Total lysates were quantified and Laemmli buffer was added to reach a 1× final concentration. Proteins were resolved in a SDS-PAGE gel and transferred onto PVDF membranes. Next, 5% milk in TBS-T was used for blocking and for secondary antibody incubations, while 2% BSA in TBS-T was used for incubations with primary antibodies. […]

[9] = 2DG 500 mg/kg daily P6 to P8, genotype not stated
[10] = 2DG 500 mg/kg daily P6 to P8, treated vs untreated mutant kidneys
[11] = cystic kidneys treated with 2DG

kidney weight [2]: did not affect
Structure (SMILES): O=CC[C@@H](O)[C@H](O)[C@H](O)CO [2DG, 2-deoxyglucose]
proliferation index in the cystic kidneys (Ki67 assay) ([1]; 2DG 500 mg/kg daily P6 to P8, vs vehicle (NaCl)): decreased; also recorded: reduced
proliferation rates in the cyst lining epithelium (Ki67) ([1]; 2DG 500 mg/kg daily P6 to P8, NaCl 28.48+/−5.39%): 10.53+/−4.38%
brain weight normalized by body weight [1, 9]: did not showed effect; also recorded: do not change
liver weight normalized by body weight [1, 9]: did not showed effect; also recorded: do not change
body weight ([1]; 2DG 500 mg/kg daily P6 to P8, mutant mice): did not alter; also recorded: do not change
number of normal and dilated tubules (cystic index) [1, 10]: slightly reduced
number of small cysts (cystic index) [1, 10]: significantly reduced
ratio of kidney weight on body weight ([1]; 2DG 500 mg/kg daily subcutaneously P6 to P8, mutant mice, vs vehicle (NaCl)): effect of the treatment with the 2DG only on mutant animals; also recorded: significantly reduced
number of cysts (cystic index) [1, 11]: significant decrease
number of normal tubules (cystic index) [1, 11]: increased
body weight [2]: did not alter

Structure (SMILES): NC(=O)c1ncn([C@@H]2O[C@H](CO)[C@@H](O)[C@H]2O)c1N [AICAR, 5-aminoimidazole-4-carboxamide ribonucleoside]
pAMPK levels ([3]; AICAR (1 mM)): restored; also recorded: increased
pERK ([3]; AICAR (1 mM)): restored to baseline levels; also recorded: inhibited

Structure (SMILES): CO[C@H]1C[C@@H]2CC[C@@H](C)[C@@](O)(O2)C(=O)C(=O)N2CCCC[C@H]2C(=O)O[C@H]([C@H](C)C[C@@H]2CC[C@@H](O)[C@H](OC)C2)CC(=O)[C@H](C)/C=C(\C)[C@@H](O)[C@@H](OC)C(=O)[C@H](C)C[C@H](C)/C=C/C=C/C=C/1C [rapamycin]
number of autophagosomes per cells evaluated by EM [4]: 2.87+/−0.55 a.u.
number of autophagosomes per cells evaluated by EM [5]: 0.96+/−0.18 a.u.

Structure (SMILES): CC[C@H]1/C=C/C=C/C[C@@H](C)[C@H](O)[C@@](C)(O)C(=O)[C@@H](C)[C@H](O)[C@@H](C)C(=O)[C@@H](C)[C@H](O)[C@@H](C)/C=C/C(=O)O[C@@H]2[C@H](C)[C@H](CC1)O[C@]1(CC[C@H](C)[C@H](C[C@@H](C)O)O1)[C@H]2C [oligomycin]
ATP content [6]: decreased

Structure (SMILES): CN(C)C(=N)N=C(N)N [metformin]
pAMPK levels ([3]; metformin (2 mM)): restored; also recorded: increased
pERK ([3]; metformin (2 mM)): restored to baseline levels; also recorded: inhibited
cyst expansion [7]: effectively reduce

Structure (SMILES): N#CC(=C(/N)Sc1ccccc1N)/C(C#N)=C(/N)Sc1ccccc1N [UO126]
pAMPK ([3]; 30 μM UO126 for 12 h): enhances
pERK ([3]; 30 μM UO126 for 12 h): restores normal
pS6RP ([3]; 30 μM UO126 for 12 h): restores normal
pLKB1 levels (LKB1 phosphorylation at 5428) ([3]; UO126, Pkd1^−/− MEFs): reduced
pLKB1 levels (LKB1 phosphorylation at 5428) [8]: reduced
